What was measured:
[1] = target: T1, FAK phosphorylated at Y397 in HEK-FAK cell line overexpressing human FL FAK protein (Homo sapiens, UniProt Q05397); test: Cell based assay, Phospho-FAK ELISA; conditions: HEK stb; read-out: pFAK EC50 (μM) HEK stb
T1 construct: expressed in transfected cells
Summary of the method: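 Stable HEK293 line overexpressing full-length human FAK, kept under 0.8 mg/mL Zeocin. In lysates, FAK Y397 autophosphorylation was measured by sandwich ELISA: total-FAK capture antibody, biotinylated pY397-specific detection antibody, streptavidin-HRP with TMB substrate.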

AURKB (Aurora B) enzyme = target: T2, AURKB (Aurora B) enzyme (Homo sapiens, UniProt Q96GD4); test: Aurora B HTRF assay; assay type: biochemical; conditions: read-out: AuroraB IC50
T2 construct: purchased Invitrogen PVR 130
T2 sequence (Q96GD4 whole entry): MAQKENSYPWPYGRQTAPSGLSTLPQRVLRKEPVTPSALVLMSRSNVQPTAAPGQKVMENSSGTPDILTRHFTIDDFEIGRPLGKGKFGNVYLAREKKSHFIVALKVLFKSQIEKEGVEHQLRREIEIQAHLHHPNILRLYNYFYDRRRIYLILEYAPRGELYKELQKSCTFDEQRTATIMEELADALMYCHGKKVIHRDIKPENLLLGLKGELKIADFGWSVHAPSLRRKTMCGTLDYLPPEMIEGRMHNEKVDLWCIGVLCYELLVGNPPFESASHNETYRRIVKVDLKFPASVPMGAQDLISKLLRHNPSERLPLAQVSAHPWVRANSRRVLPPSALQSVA
Summary of the method: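 HTRF kinase assay with 5 nM Aurora B and 50 nM ULight-PLK (Ser137) peptide, with a reagent at 30 μM final; 1 h at rt. Reaction stopped with EDTA, and phospho-peptide detected with 2 nM Eu-anti-P-PLK(Ser137) antibody after 1 h at rt, read as HTRF.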

T1 sequence (Q05397 whole entry): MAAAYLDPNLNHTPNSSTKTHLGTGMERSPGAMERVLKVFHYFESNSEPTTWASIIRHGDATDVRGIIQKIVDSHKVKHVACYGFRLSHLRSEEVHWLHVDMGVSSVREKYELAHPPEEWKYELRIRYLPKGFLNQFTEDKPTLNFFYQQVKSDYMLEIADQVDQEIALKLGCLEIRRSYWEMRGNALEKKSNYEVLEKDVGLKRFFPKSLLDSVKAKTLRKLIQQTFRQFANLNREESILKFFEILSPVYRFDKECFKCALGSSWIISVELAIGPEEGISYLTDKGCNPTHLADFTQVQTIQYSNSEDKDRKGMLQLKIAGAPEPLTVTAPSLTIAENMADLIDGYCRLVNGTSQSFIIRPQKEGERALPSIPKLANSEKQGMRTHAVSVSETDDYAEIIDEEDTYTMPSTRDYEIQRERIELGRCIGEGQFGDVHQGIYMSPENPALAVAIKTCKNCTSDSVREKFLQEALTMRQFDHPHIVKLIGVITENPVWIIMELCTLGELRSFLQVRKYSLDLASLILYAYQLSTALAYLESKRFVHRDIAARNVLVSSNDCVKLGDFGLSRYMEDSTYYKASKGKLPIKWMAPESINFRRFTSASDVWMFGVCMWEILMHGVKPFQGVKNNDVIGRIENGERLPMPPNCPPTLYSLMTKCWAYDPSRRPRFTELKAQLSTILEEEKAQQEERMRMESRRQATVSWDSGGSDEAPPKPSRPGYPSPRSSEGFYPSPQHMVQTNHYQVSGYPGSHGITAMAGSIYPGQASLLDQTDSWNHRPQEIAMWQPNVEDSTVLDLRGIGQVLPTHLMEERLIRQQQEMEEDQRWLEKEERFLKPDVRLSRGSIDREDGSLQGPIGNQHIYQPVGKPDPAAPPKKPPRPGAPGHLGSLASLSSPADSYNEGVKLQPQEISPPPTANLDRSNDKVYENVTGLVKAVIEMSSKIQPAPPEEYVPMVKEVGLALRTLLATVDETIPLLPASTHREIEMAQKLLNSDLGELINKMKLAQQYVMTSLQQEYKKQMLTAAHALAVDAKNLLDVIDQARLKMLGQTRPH

SMILES	EC50 [1]	IC50 (AURKB (Aurora B) enzyme)
O=C1CCc2cc(Nc3ncc4cnn(Cc5ccccc5OC(F)F)c4n3)ccc2N1 [Example 21]	> 1 µM	
FC(F)Oc1ccccc1Cn1ccc2cnc(Nc3ccc4ncsc4c3)nc21 [Example 36]	> 1 µM	> 1000 nM
O=C1CCc2cc(Nc3ncc4ccn(S(=O)(=O)c5cccc6cccnc56)c4n3)ccc2N1 [Example 169]		< 20 nM
O=C1CCc2cc(Nc3ncc4ccn(Cc5cccnc5N5CCCS5(=O)=O)c4n3)ccc2N1 [Example 216]	> 1 µM	< 20 nM
O=S(=O)(c1cccc2nsnc12)n1ccc2cnc(Nc3ccc(N4CCNCC4)cc3)nc21 [Example 253]	> 1 µM	< 20 nM
Cn1cc(Nc2ncc3ccn(S(=O)(=O)c4cccc5cccnc45)c3n2)cn1 [Example 318]	> 1 µM	< 20 nM
COc1cc(N2CCNCC2)ccc1Nc1cc2c(ccn2S(=O)(=O)c2cccc3cccnc23)cn1 [Example 330, N-(2-Methoxy-4-(piperazin-1-yl)phenyl)-1-(quinolin-8-ylsulfonyl)-1H-pyrrolo[3,2-c]pyridin-6-amine]	< 0.02 µM	< 20 nM
Cc1cc(Nc2ncc3cnn(S(=O)(=O)c4cccc5cccnc45)c3n2)ccc1N1CCNCC1 [Example 332]	< 0.02 µM	< 20 nM
COc1ccccc1S(=O)(=O)n1ncc2cnc(Nc3ccc(N4CCNCC4)cc3)nc21 [Example 335]	> 1 µM	< 20 nM

Continued, values first:

EC50 [1]	IC50 (AURKB (Aurora B) enzyme)	SMILES
> 1 µM	> 1000 nM	CC(=O)Nc1cccc(Nc2cc3c(cn2)cnn3Cc2ccccc2OC(F)F)c1 [Example 64]
> 1 µM	> 1000 nM	FC(F)Oc1ccccc1Cn1ncc2cnc(Nc3ccc4ncsc4c3)cc21 [Example 82]
> 1 µM		CN(c1ncccc1Cn1ncc2cnc(Nc3ccc4[nH]c(=O)[nH]c4c3)cc21)S(C)(=O)=O [Example 142]
> 1 µM	< 20 nM	CN(c1ncccc1Cn1ccc2cnc(Nc3ccc(NCCO)cc3)nc21)S(C)(=O)=O [Example 201]
> 1 µM		CN(c1ncccc1Cn1ncc2cnc(Nc3ccc4c(c3)CCC(=O)N4)nc21)S(C)(=O)=O [Example 202]
> 1 µM		CN(c1ncccc1Cn1ccc2cnc(Nc3ccc(N4CCCC4CO)cc3)nc21)S(C)(=O)=O (stereo not shown) [Example 536]
